Assay results from ChEMBL document CHEMBL3045110, “Synthesis and antibacterial evaluation of 6-azapyrimidines with -methylene--(4-substituted phenyl)--butyrolactone pharmacophores” (2011).
In brackets after ≈: the same amount, converted by molar mass.

Key:
Assay type in all cases: functional
[1] = test system: Micrococcus; test: Antibacterial activity against Micrococcus […] ATCC 9341 after 20 to 22 hr by agar dilution method
[2] = test system: Proteus vulgaris; test: Antibacterial activity against Proteus vulgaris ATCC 13315 after 20 to 22 hr by agar dilution method
[3] = test system: Bacillus cereus; test: Antibacterial activity against Bacillus cereus ATCC 11778 after 20 to 22 hr by agar dilution method
[4] = test system: Bacillus subtilis; test: Antibacterial activity against Bacillus subtilis ATCC 6633 after 20 to 22 hr by agar dilution method
[5] = test system: Staphylococcus aureus; test: Antibacterial activity against Staphylococcus aureus ATCC 25923 after 20 to 22 hr by agar dilution method
[6] = test system: Bordetella bronchiseptica; test: Antibacterial activity against Bordetella bronchiseptica ATCC 4617 after 20 to 22 hr by agar dilution method
[7] = test system: Staphylococcus epidermidis; test: Antibacterial activity against Staphylococcus epidermidis ATCC 12228 after 20 to 22 hr by agar dilution method

Compound	MIC [1] [µg/mL]	MIC [2] [µg/mL]	MIC [3] [µg/mL]	MIC [4] [µg/mL]	MIC [5] [µg/mL]	MIC [6] [µg/mL]	MIC [7] [µg/mL]
C=C1CC(Cn2ncc(=O)n(CC3(c4ccccc4)CC(=C)C(=O)O3)c2=O)(c2ccccc2)OC1=O (stereo unspecified)	> 100	> 100	> 100	> 100	> 100	> 100	> 100
C=C1CC(Cn2ncc(=O)n(CC3(c4ccc(F)cc4)CC(=C)C(=O)O3)c2=O)(c2ccc(F)cc2)OC1=O (stereo unspecified)	> 100	> 100	10 (≈ 19.2 µM)	> 100	> 100	> 100	> 100
C=C1CC(Cn2ncc(=O)n(CC3(c4ccc(-c5ccccc5)cc4)CC(=C)C(=O)O3)c2=O)(c2ccc(-c3ccccc3)cc2)OC1=O (stereo unspecified)	50 (≈ 78.4 µM)	25 (≈ 39.2 µM)	25 (≈ 39.2 µM)	10 (≈ 15.7 µM)	50 (≈ 78.4 µM)	25 (≈ 39.2 µM)	10 (≈ 15.7 µM)
C=C1CC(Cn2nc(C)c(=O)n(CC3(c4ccccc4)CC(=C)C(=O)O3)c2=O)(c2ccccc2)OC1=O (stereo unspecified)	> 100	> 100	> 100	> 100	> 100	> 100	> 100
C=C1CC(Cn2nc(C)c(=O)n(CC3(c4ccc(F)cc4)CC(=C)C(=O)O3)c2=O)(c2ccc(F)cc2)OC1=O (stereo unspecified)	25 (≈ 46.7 µM)	> 100	25 (≈ 46.7 µM)	> 100	> 100	> 100	> 100
C=C1CC(Cn2nc(C)c(=O)n(CC3(c4ccc(-c5ccccc5)cc4)CC(=C)C(=O)O3)c2=O)(c2ccc(-c3ccccc3)cc2)OC1=O (stereo unspecified)	> 100	> 100	25 (≈ 38.4 µM)	> 100	> 100	> 100	> 100
O=c1cn[nH]c(=O)[nH]1 [6-AZAURACIL]	> 100	> 100	> 100	> 100	> 100	> 100	> 100

Continued, values first:

MIC [1] [µg/mL]	MIC [2] [µg/mL]	MIC [3] [µg/mL]	MIC [4] [µg/mL]	MIC [5] [µg/mL]	MIC [6] [µg/mL]	MIC [7] [µg/mL]	Compound
> 100	5 (≈ 16.7 µM)	> 100	> 100	> 100	> 100	> 100	C=C1CC(Cn2ncc(=O)[nH]c2=O)(c2ccccc2)OC1=O (stereo unspecified)
> 100	50 (≈ 158 µM)	50 (≈ 158 µM)	> 100	> 100	> 100	> 100	C=C1CC(Cn2ncc(=O)[nH]c2=O)(c2ccc(F)cc2)OC1=O (stereo unspecified)
> 100	25 (≈ 66.6 µM)	50 (≈ 133 µM)	> 100	> 100	> 100	> 100	C=C1CC(Cn2ncc(=O)[nH]c2=O)(c2ccc(-c3ccccc3)cc2)OC1=O (stereo unspecified)
> 100	> 100	> 100	> 100	> 100	> 100	> 100	C=C1CC(Cn2nc(C)c(=O)[nH]c2=O)(c2ccccc2)OC1=O (stereo unspecified)
> 100	> 100	50 (≈ 151 µM)	> 100	> 100	> 100	> 100	C=C1CC(Cn2nc(C)c(=O)[nH]c2=O)(c2ccc(F)cc2)OC1=O (stereo unspecified)
> 100	> 100	> 100	25 (≈ 64.2 µM)	> 100	50 (≈ 128 µM)	25 (≈ 64.2 µM)	C=C1CC(Cn2nc(C)c(=O)[nH]c2=O)(c2ccc(-c3ccccc3)cc2)OC1=O (stereo unspecified)
